Assays:
[1] = system: pilocarpine-induced status epilepticus; experiment: Pilocarpine-induced status epilepticus in mice; format: in vivo, mouse; conditions: for Mortality: 50 min
Protocol: Male mice (C57BL/6, 21-24 g) were used. The experimental animals were housed under a 12-hour light/dark cycle (lighting from 7 pm to 7 am) and maintained at a temperature of 22-25° C. and about 40 to 60% relative humidity. Food and water were provided ad libitum. The animals were randomly divided into the following groups. […]
Experimental Groups of Administering Positive Control and Test Compound 10 Minutes after Onset of Status Epilepticus • As a control, 13 mice intraperitoneally single administered with 30% PEG300 (vehicle) at a volume of 10 ml/kg • As a positive control, 12 mice intraperitoneally single administered valproic acid (VPA) at a dose of 200 mg/kg (10 ml/kg) • 13 Mice intraperitoneally single administered Test Compound at a dose of 25 mg/kg (10 ml/kg) Induction of Status Epilepticus
Methylscopolamine was dissolved in a vehicle (0.9% saline) at a concentration of 1 mg/kg (10 m/kg) and administered subcutaneously to the back of the neck. After 30 minutes, pilocarpine was dissolved in a vehicle (0.9% saline) at a concentration of 320 mg/kg (10 ml/kg) and administered intraperitoneally.
In the case of the drug-administered experimental groups 10 minutes after onset of status epilepticus, valproic acid and Test Compound were administered 10 minutes after onset of status epilepticus. […]
In the case of the drug-administered experimental groups 10 minutes after onset of status epilepticus, Test Compound was administered intraperitoneally at a dose of 25 mg/kg (10 ml/kg). At the same time point, valproic acid (positive control group) was administered intraperitoneally at a dose of 200 mg/kg (10 ml/kg). […]
In the case of the drug-administered experimental groups 10 minutes after onset of status epilepticus, the effects of the compound were represented as the mean±standard error, and statistical significance was recognized when there was a difference of p<0.05 in data using one-way ANOVA and a Tukey's test as a post-hoc test.

[2] = system: low Mg2+-induced seizure-like events (SLEs) in CA1 pyramidal neurons of hippocampal slices; experiment: Whole-cell patch-clamp model of low Mg2+-induced seizure-like events in mouse hippocampal slices; format: cell-based; conditions: for Duration of SLE in comparison with before treatment of Test Compound, during treatment / Number of SLE in comparison with before treatment of Test Compound, during treatment: 100 μM; for Duration of SLE in comparison with before treatment of Test Compound, during treatment / Number of SLE in comparison with before treatment of Test Compound, during treatment / Duration of SLE in comparison with before treatment of Test Compound, after washing / Number of SLE in comparison with before treatment of Test Compound, after washing: mean±standard error; for Duration of SLE in comparison with before treatment of Test Compound, after washing / Number of SLE in comparison with before treatment of Test Compound, after washing: after washout of 100 μM
Protocol: Male mice (C57BL/6, 24-26 g) were used. The experimental animals were housed under a 12-hour light/dark cycle (lighting from 7 pm to 7 am) and maintained at a temperature of 22-25° C. and about 40 to 60% relative humidity. Food and water were provided ad libitum.
For whole-cell patch-clamp recording, the brain of the mouse was excised, and the hippocampal slices ([…]) were prepared with oxygenated artificial cerebrospinal fluid (ACSF) (124 mM NaCl, 3.0 mM KCl, 1.23 mM NaH2PO4, 2.2 mM CaCl2, 1.2 mM MgCl2, 26 mM NaHCO3, and 10 mM glucose, pH 7.4). All experiments were performed in visually guided CA1 pyramidal neurons, and a glass pipette (4-5 MΩ) was used for recording. After incubating the tissue for 1 hour, a single slice was submerged in a recording chamber and continuously superfused with oxygenated artificial cerebrospinal fluid (32° C.; 95% O2/5% CO2).
For low Mg^2+-induced seizure-like events (SLEs) measurement, 0 mM MgCl2 and 5.0 mM KCl were used. SLEs were defined by more than three spikes in a burst. Whole-cell patch-clamp currents were digitized with a MultiClamp 700B amplifier and a Digidata 1440 (Axon Instruments, CA), and the acquired data were analyzed with the pCLAMP version 10.2 (Axon Instruments) and the Mini Analysis Program (Synaptosoft).
Early SLEs (immediately after onset of SLEs): measurement of SLEs observed 20-30 minutes after the application of low Mg^2+ ACSF.
Late SLEs (after 1 hour incubation in low Mg^2+ ACSF): measurement of SLEs observed immediately after whole-cell rupture.
The treatment of the compound for measuring the effect of Test Compound was initiated 10-15 minutes after the occurrence of SLEs.
The effect of Test Compound was a comparison value (%) to the SLE value that occurred after the treatment of low Mg^2+ ACSF and before the treatment of Test Compound, and was represented as the mean±standard error. When there was a difference of p<0.05 in data by using Student's t-test, statistical significance was recognized.

[3] = Drug administration 10 min after onset of status epilepticus, 200 mg/kg i.p., observed 50 min, mean±standard error
[4] = Early SLE, treatment started 10-15 min after occurrence of SLE, n=5
[5] = Early and late SLEs, 100 μM treated 10-15 minutes after occurrence of SLE, compared to after washing
[6] = Late SLE (after 1 hour in low Mg2+ ACSF), n=8

Row | SMILES | Mortality ([1]; Drug administration 10 min after onset of status epilepticus, 200 mg/kg i.p.) | Seizure count [1, 3] | Seizure score (modified Racine score) [1, 3] | Mortality, result in words ([1]; 20 mg/kg i.p. immediately after occurrence of status epilepticus, compared to the control group) | Mortality ([1]; Drug administration 10 min after onset of status epilepticus, 25 mg/kg i.p.) | Mortality ([1]; Drug administration immediately after onset of status epilepticus, 20 mg/kg i.p.) | Duration of SLE in comparison with before treatment of Test Compound, during treatment [2, 4] | Number of SLE in comparison with before treatment of Test Compound, during treatment [2, 4] | Duration of SLE in comparison with before treatment of Test Compound, after washing ([2]; Early SLE, n=5) | Number of SLE in comparison with before treatment of Test Compound, after washing ([2]; Early SLE, n=5) | Duration of SLE, result in words [2, 5] | Number of SLE, result in words [2, 5] | Duration of SLE in comparison with before treatment of Test Compound, during treatment [2, 6] | Number of SLE in comparison with before treatment of Test Compound, during treatment [2, 6] | Duration of SLE in comparison with before treatment of Test Compound, after washing ([2]; Late SLE, n=8) | Number of SLE in comparison with before treatment of Test Compound, after washing ([2]; Late SLE, n=8)
1 | CCCC(CCC)C(=O)O [Positive control group, valproic acid, reference compound] | 14% | 0.8 ± 0.18 | 3.2 ± 0.39 |  |  |  |  |  |  |  |  |  |  |  |  | 
2 | NC(=O)O[C@@H](Cn1ncnn1)c1ccccc1Cl [Test Compound, Carbamic acid (R)-1-(2-chlorophenyl)-2-tetrazol-2-yl-ethyl ester] |  |  |  | tendency to suppress mortality | 0% | 0% | 15.39 ± 6.82% | 31.45 ± 16.13% | 83.63 ± 5.14% | 91.99 ± 16.47% | significantly reduced | significantly reduced | 42.61 ± 3.50% | 62.12 ± 5.59% | 81.81 ± 13.78% | 92.36 ± 8.21%
